Publication PMC12094722, “Small-molecule inhibitors of 6-phosphofructo-1-kinase simultaneously suppress lactate and superoxide generation in cancer cells” (PLOS One, 2025)
Several values for one entry are separate records, joined by “and”; a condition that tells them apart may be missing. Equal entries are not always repeated.

How the values were obtained:
[1] = target: T1, modified sfPFK-M enzyme (47 kDa fragment) (Homo sapiens, UniProt P08237); test: PFK1 enzymatic assay, modified sfPFK-M; assay type: biochemical
T1 sequence (P08237 2-390 limits assumed): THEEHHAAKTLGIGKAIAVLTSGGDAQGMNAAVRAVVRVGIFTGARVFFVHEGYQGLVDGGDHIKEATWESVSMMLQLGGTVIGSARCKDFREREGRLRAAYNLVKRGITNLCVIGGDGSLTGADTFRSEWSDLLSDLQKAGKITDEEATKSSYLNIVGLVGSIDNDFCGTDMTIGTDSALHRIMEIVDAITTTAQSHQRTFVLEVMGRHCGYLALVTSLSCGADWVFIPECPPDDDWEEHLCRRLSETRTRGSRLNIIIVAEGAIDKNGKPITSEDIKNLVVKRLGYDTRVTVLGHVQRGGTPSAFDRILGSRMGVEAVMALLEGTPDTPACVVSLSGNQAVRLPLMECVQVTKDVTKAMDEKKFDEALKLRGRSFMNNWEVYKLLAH
Procedure: (§1) To evaluate the ability of selected compounds to suppress the activities of the recombinant human native and modified PFK-M and PFK-L enzymes, they were constructed in yeast S. cerevisiae as a host organism (S1 Text), partially purified, and their activities assayed (S2 Text).
(§2) S2 Text: PFK1 Enzymatic assays.
(§3) PFK1 activities were determined spectrophotometrically at 340 nm (Lambda 25 UV/VIS spectrophotometer, Perkin Elmer) as reported previously using a coupled reaction system. Unless otherwise stated, in a final volume of 1 mL, the assay mixture contained 50 mM HEPES buffer (pH 7.8), 1 mM DTE, 100 mM KCl, 5 mM MgCl2, 0.2 mM NADH, 0,025 to 2 mM F6P, 10% v/v polyethylene glycol (PEG 6000), 0.9 U/mL aldolase (Sigma-Aldrich, Steinheim, Germany), 15 U/mL triosephosphate isomerase, and 15 U/mL glycerol-3-phosphate dehydrogenase (Sigma-Aldrich, Steinheim, Germany). Before use, the auxiliary enzymes were dialyzed overnight at 4 °C against 50 mM HEPES buffer (pH 7.8) containing 1 mM DTE, with one buffer […]
(§4) induce inhibition. The enzyme concentration used in the kinetic assay was 0.2 µg/mL. […] Total protein concentrations of the samples were determined using a Bio-Rad protein assay (Bio-Rad, Hercules, Ca) with bovine y-globulin […]

[2] = target: T2, native nPFK-M enzyme (85 kDa) (Homo sapiens, UniProt P08237); test: PFK1 enzymatic assay, native nPFK-M; assay type: biochemical
T2 construct: made in house; host or cells: Saccharomyces cerevisiae pfk-null HD-114-8A
T2 sequence (P08237 1-780): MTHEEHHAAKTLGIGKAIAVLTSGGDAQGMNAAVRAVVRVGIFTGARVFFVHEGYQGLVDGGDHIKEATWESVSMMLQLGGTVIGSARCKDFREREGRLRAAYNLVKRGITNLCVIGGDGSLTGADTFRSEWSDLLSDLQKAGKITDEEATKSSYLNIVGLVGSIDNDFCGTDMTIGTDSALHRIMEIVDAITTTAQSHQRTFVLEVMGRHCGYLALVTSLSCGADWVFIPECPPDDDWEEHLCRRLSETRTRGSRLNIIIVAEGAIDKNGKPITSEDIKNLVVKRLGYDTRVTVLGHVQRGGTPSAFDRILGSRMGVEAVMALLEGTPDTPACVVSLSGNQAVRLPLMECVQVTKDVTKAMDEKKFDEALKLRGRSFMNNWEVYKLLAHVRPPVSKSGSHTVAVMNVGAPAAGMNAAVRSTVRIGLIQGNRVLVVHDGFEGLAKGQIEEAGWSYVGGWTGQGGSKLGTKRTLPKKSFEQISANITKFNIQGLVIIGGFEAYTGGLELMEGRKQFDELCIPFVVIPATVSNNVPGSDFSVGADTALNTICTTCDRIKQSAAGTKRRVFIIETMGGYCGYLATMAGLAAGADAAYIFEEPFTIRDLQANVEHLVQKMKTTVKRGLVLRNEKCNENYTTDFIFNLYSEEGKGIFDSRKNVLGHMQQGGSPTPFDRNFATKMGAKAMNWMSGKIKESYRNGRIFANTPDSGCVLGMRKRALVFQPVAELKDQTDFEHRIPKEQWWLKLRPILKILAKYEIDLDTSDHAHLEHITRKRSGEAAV
Procedure: as §1, §2, §3, §4

COLO 829 cells [3] = test: Dose-dependent inhibition of lactate formation; assay type: cell-based; conditions: 20, 40, 60, 80 µM, up to 72 hours
Caco-2 cells [4] = test: Dose-dependent inhibition of lactate formation; assay type: cell-based; conditions: 20, 40, 60, 80 µM, up to 72 hours
Procedure: (§5) If not specified differently, the tumorigenic cells were plated in the RPMI 1640 GlutaMax medium (Thermo Fisher Scientific, Waltham, MA, USA) supplemented with 10% FBS at the concentration of 5 × 10^5 cells per mL. The cells were incubated at 37 °C and 5% CO2. Different concentrations of specific inhibitors were added to the medium at the beginning of inoculation. An adequate amount of DMSO used in the solution with the specified concentrations of compounds was added to the vehicle.
(§6) For measuring lactate concentrations in the medium, 20 µL samples were taken at specified time intervals, centrifuged at 1200 rpm for 5 minutes at 4 °C and 15 µL supernatants were preserved at 4 °C until analyzed.
(§7) Lactate levels were assessed enzymatically using an L-Lactic acid assay kit (K-LATE, Megazyme, Bray, Ireland) and measured according to the manufacturer’s instructions.
(§8) The lactate formation, growth yield, and survival under normal and inhibitory conditions of four tumorigenic cell lines were investigated. […] Cells were grown in the presence of vehicles or inhibitors at different concentrations (20, 40, 60, and 80 µM), and lactate levels in the supernatant were determined sequentially.

Jurkat cells [5] = test: Dose-dependent inhibition of lactate formation; assay type: cell-based; conditions: for Stability of the compounds during incubation, indicated by increasing lactate formation in later phases: Jurkat cell culture medium, after 24 hours up to 72 hours; for Lactate formation in the first 24 hours: Jurkat cells, 20, 40, 60, 80 µM, regardless of concentration, later dose-dependent lactate production up to 72 hours
Procedure: as §5, §6, §7, §8

MDA-MB-231 cells [6] = test: Dose-dependent inhibition of lactate formation; assay type: cell-based; conditions: 20, 40, 60, 80 µM, up to 72 hours
Procedure: as §5, §6, §7, §8

Jurkat cells [7] = test: Cytostatic assay (XTT cell proliferation); assay type: cell-based; conditions: 20-80 µM
Procedure: (§9) Untreated cells and cells treated with different concentrations of inhibitors were incubated for 72 hours before alive cellular biomass was determined according to the manufacturer’s instructions.
To investigate possible cytostatic effects of the inhibitors, the total cell number of Jurkat cells treated with vehicles of different concentrations of inhibitors was determined immediately after incubation.

COLO 829 cells [8] = test: Cytostatic assay (XTT cell proliferation); assay type: cell-based; conditions: up to 80 µM, 72 hours
Procedure: as §9

Caco-2 cells [9] = test: Cytostatic assay (XTT cell proliferation); assay type: cell-based; conditions: up to 80 µM, 72 hours
Procedure: as §9

MDA-MB-231 cells [10] = test: Cytostatic assay (XTT cell proliferation); assay type: cell-based; conditions: up to 80 µM, 72 hours
Procedure: as §9

Jurkat cells [11] = assay type: cell-based
Procedure: (§10) As a negative control, 100 µL Triton X-100 was added to wells containing 1mL medium with cells. For the survival evaluation in the dose-dependent tests, the measurements were conducted at the end of incubation at 72 hours of growth in the medium.
The potential cytotoxicity of the inhibitors was also assessed. At the end of the incubation, the average percentage of dead cells was determined in the presence of a vehicle and a 80 µM concentration of each inhibitor.

COLO 829 cells [12] = assay type: cell-based; conditions: 72 hours
Procedure: as §10

Caco-2 cells [13] = assay type: cell-based; conditions: 72 hours
Procedure: as §10

MDA-MB-231 cells [14] = assay type: cell-based; conditions: 72 hours
Procedure: as §10

[15] = tested on: all tumorigenic cell lines tested; test: ROS/SOX reduction by sequential re-insertion, statement for all lines; assay type: cell-based; conditions: sequentially re-added every 24 hours
Procedure: After 78 hours cells were washed by centrifugation, and an aliquot of 1 × 10^5 cells was placed into 1 mL of phenol red-free IMDM medium (Thermo Fisher Scientific, Waltham, MA, USA) supplemented with 10% of FBS. The cells were incubated for an additional 3 hours before measurement.
For detecting ROS and SOX levels in the cells, 100 µL of medium was washed with PBS by standard centrifugation protocol and then placed into a well on the 96-well black wall/clear bottom plate. To each well 100 µL ROS detection reagent (Green) and SOX detection reagent (Orange) were added as specified in the Cellular ROS/SOX Detection Assay Kit (ab139476 Abcam, Cambridge, UK). For measuring superoxide Cellular Superoxide Detection Assay Kit (ab139477 Abcam, Cambridge, UK) was used that contains “Orange” but not the “Green” reagent.

[16] = target: T3, modified sfPFK-L enzyme (70 kDa fragment) (Homo sapiens, UniProt P17858); test: PFK1 enzymatic assay, modified sfPFK-L; assay type: biochemical
T3 construct: 45.920 Da [2] and short PFK-L of 69.942 Da fragments [3], respectively; made in house; host or cells: Saccharomyces cerevisiae pfk-null HD-114-8A
T3 sequence (P17858 2-648): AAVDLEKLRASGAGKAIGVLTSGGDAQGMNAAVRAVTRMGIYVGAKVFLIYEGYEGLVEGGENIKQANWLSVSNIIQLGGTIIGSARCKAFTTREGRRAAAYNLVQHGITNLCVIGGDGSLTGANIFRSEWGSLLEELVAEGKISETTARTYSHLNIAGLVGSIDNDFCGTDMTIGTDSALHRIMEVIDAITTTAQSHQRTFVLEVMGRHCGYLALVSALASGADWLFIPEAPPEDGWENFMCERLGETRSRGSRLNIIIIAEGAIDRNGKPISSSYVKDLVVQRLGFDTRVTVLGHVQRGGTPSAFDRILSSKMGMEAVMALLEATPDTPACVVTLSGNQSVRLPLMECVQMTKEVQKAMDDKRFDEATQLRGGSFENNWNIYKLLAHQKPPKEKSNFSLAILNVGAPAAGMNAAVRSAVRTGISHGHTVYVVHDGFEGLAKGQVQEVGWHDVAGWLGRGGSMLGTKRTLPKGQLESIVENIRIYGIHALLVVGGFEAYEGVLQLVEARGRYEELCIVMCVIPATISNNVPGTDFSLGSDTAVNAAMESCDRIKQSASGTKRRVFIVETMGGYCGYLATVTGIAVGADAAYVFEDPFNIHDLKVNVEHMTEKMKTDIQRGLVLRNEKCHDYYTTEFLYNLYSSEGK
Procedure: as §1, §2, §3, §4

[17] = 10 µM sequentially added every 24 hours

## O=C(CSc1nnc(-c2ccc3c(c2)OCO3)o1)Nc1ccon1 [cmpd No. 3, 2-[(5-benzo[1,3]dioxol-5-yl-1,3,4-oxadiazol-2-yl)sulfanyl]-N-isoxazol-3-yl-acetamide]
[1]
  IC50: 15 µM and ~15 µM
[2]
  IC50: 18 µM

## COc1ccc(-c2cccc(-c3ccn(Cc4noc(C)n4)n3)c2)nn1 [cmpd No. 9, 3-methoxy-6-(3-{1-[(5-methyl-1,2,4-oxadiazol-3-yl)methyl]-1H-pyrazol-3-yl}phenyl)pyridazine]
COLO 829 cells [3]
  Lactate formation, dose-dependent test: Apparent dose-dependent effects of suppressed lactate formation
Caco-2 cells [4]
  Lactate accumulation, dose-dependent test: dose-dependent reduction in lactate accumulation
Jurkat cells [5]
  Stability of the compounds during incubation, indicated by increasing lactate formation in later phases: instability
  Lactate formation in the first 24 hours: no or only small amounts of lactate
MDA-MB-231 cells [6]
  Lactate suppression, dose-dependent test: Dose-dependent effects
Jurkat cells [7]
  Cytostatic effect (cells counted after 72 hours of incubation): no significant cytostatic
COLO 829 cells [8]
  Cytostatic effect (total cell number compared to the control): No significant differences in the total cell number
Caco-2 cells [9]
  Cytostatic effect (total number of cells at the end of incubation): no adverse effects on cell growth
MDA-MB-231 cells [10]
  Cytostatic effect (total cell number): No significant differences in total cell number
Jurkat cells [11]; 80 µM, end of incubation 72 hours
  Average percentage of dead cells: 3.74 ± 0.3%
Jurkat cells [11]; 10 µ L sequentially added every 24 hours, 72 hours
  Average percentage of dead cells, sequentially treated: 3.24 ± 0.25%
COLO 829 cells [12]; [17]
  Average percentage of dead cells, sequentially treated: 2.84 ± 0.19%
COLO 829 cells [12]; dose-dependent test
  Average percentage of dead cells: 3.65 ± 0.78%
Caco-2 cells [13]; [17]
  Average percentage of dead cells, sequentially treated: 4.03 ± 0.32%
Caco-2 cells [13]; dose-dependent test, different concentrations of inhibitors
  Average percentage of dead cells: 3.33 ± 0.14%
MDA-MB-231 cells [14]; [17]
  Average percentage of dead cells, sequentially treated: 2.35 ± 0.09%
MDA-MB-231 cells [14]; dose-dependent test
  Average percentage of dead cells: 6.59 ± 0.29%
[15]; 5 µM
  Reduction of ROS formation: approximately 50%
[15]; 10 and 20 µM
  Reduction of ROS formation: approximately 65%

## Nc1nnc(-c2cc(-c3ccc(O)cc3)on2)o1 [cmpd No. 30, 4-[3-(5-amino-1,3,4-oxadiazol-2-yl)isoxazol-5-yl]phenol]
[16]
  IC50: 8 µM
Caco-2 cells [4]
  Lactate accumulation, dose-dependent test: dose-dependent reduction in lactate accumulation
Jurkat cells [5]
  Stability of the compounds during incubation, indicated by increasing lactate formation in later phases: instability
  Lactate formation in the first 24 hours: no or only small amounts of lactate
MDA-MB-231 cells [6]
  Lactate suppression, dose-dependent test: Dose-dependent effects
